Results reported in patent publication US20230310540A1, “PEPTIDE COMPOSITIONS AND METHODS OF USE THEREOF” (priority 2020, published 2023).
≈ marks a conversion by molar mass, not a printed value. Square brackets hold non-standard residues; d marks the D form. Peptide text beside a SMILES is read from it. d(hArg) = N=C(N)NCCCC[C@@H](N)C(=O)O

Legend:
Format in all cases: cell-based
[1] = tested on: human RBCs; experiment: Hemolysis of human RBCs
Procedure: (§1) Peptide variants of D-CONGA (SEQ ID NO: 1) were tested for activity against E. coli, K. pneumoniae, and S. aureus. Minimum Inhibitory Concentrations (MIC) were measured in 96-well plates by broth dilution. Peptides were serially diluted in buffer or in buffer containing 1×10^9 human RBC/ml. Following 1 hr. incubation, bacteria in growth media were added and the plates were incubated overnight at 37° C. Sterilized, wells were identified to determine MIC. Hemolysis was measured by incubating 1×10^8 human RBCs with serially diluted peptide for 30 minutes followed by centrifugation of the cells and measurements of the released hemoglobin in the supernatant by absorbance at 410 nm. The value for 100% hemolysis was established by treatment with the detergent Triton-X100. Toxicity was measured by incubating serially diluted peptide with WI38 human fibroblast cells in the presence of SYTOX Green, a DNA binding dye that reports on cell death by membrane permeabilization. The peptide concentration that gives 50% cytotoxicity by relative SYTOX Green fluorescence, is denoted EC50.
Peptide was serially diluted in PBS starting at a concentration of 100 μM. The final volume of peptide in each well was 50 μL. To each well, 50 μL of RBCs in PBS at 2×10^8 cells/mL was added. As a positive lysis control, 1% triton was used. The mixtures were incubated at 37° C. for 1 hour, after which they were centrifuged at 1000 g for 5 minutes. After centrifugation, 10 μL of supernatant was transferred to 90 μL of DI H2O in a fresh 96-well plate. The absorbance of released hemoglobin at 410 nm was recorded and the fractional hemolysis was calculated based on the 100% and 0% lysis controls.
(§2) MIC values were reported in μM peptide against gram-negative E. coli (EC), P. aeruginosa (PA), and gram-positive S. aureus (SA). The two columns under each organism are for assays performed in the absence (−) and presence (+) of 1×10^9 human RBC/ml. “>30” means that sterilization was not observed at 30 μM, the highest concentration tested. The column marked “hemolysis” is the fractional hemolysis of 1×10^8 human RBC/ml at 100 μM peptide determined from measurements of serially diluted peptide, starting from 100 μM. The column marked “EC 50” contains the concentration of peptide that kills 50% of WI-38 human fibroblast cells assayed by entry of SYTOX™ Green DNA binding dye.

[2] = tested on: S. aureus; conditions: for MIC in Broth Dilution, S. Aureus, RBC −: absence of RBC; for MIC in Broth Dilution, S. Aureus, RBC − / MIC in Broth Dilution, S. Aureus, RBC +: Table 3; for MIC, S. aureus, No RBC / MIC, S. aureus, 10^9 cells/ml RBC: Table 2; for MIC in Broth Dilution, S. Aureus, RBC +: presence of 1×10^9 human RBC/ml; for MIC, S. aureus, 10^9 cells/ml RBC: with 10^9 human RBC/ml
Procedure: as §1
(§3) Antimicrobial peptides and conventional antibiotics were prepared at 5-times the final concentration needed in 0.025% acetic acid. The antibiotics were serially diluted by a factor of 2:3 horizontally across 96-well plates from Corning, 25 μL per well. One column was reserved for controls. For the assays performed in the presence of RBC, type O+ human RBCs at 0 or 2.5×10^9 cells/mL were added in 50 μL aliquots to all wells. Following a 30-minute incubation, 50 μL of TSB, inoculated with 5×10^5 CFU/mL, was added to all wells, and plates were incubated overnight at 37° C. Following overnight incubation at 37° C., the OD600 was measured (values of less than 0.1 were considered sterilized). To assess bacterial growth in the assays with RBC, the OD600 was measured after a second day inoculation with 10 μL of solution from the original plate added to 100 μL of sterile TSB followed by overnight incubation.
as §2

[3] = tested on: E. coli; conditions: for MIC in Broth Dilution, E. coli, RBC −: absence of RBC; for MIC in Broth Dilution, E. coli, RBC − / MIC in Broth Dilution, E. coli, RBC +: Table 3; for MIC, E. coli, No RBC / MIC, E. coli, 10^9 cells/ml RBC: Table 2; for MIC in Broth Dilution, E. coli, RBC +: presence of 1×10^9 human RBC/ml; for MIC, E. coli, 10^9 cells/ml RBC: with 10^9 human RBC/ml
Procedure: as §1, §3, §2

| Compound | Hemolysis at 100 μM [1] | MIC in Broth Dilution, S. Aureus, RBC − [2] [µM] | MIC, S. aureus, No RBC [2] [µM] | MIC in Broth Dilution, S. Aureus, RBC + [2] [µM] | MIC, S. aureus, 10^9 cells/ml RBC [2] [μM] | MIC in Broth Dilution, E. coli, RBC − [3] [µM] | MIC, E. coli, No RBC [3] [µM] | MIC in Broth Dilution, E. coli, RBC + [3] [µM] | MIC, E. coli, 10^9 cells/ml RBC [3] [μM] |
| --- | --- | --- | --- | --- | --- | --- | --- | --- | --- |
| CC(C)C[C@@H](NC(=O)[C@@H](CCCNC(=N)N)NC(=O)[C@H](N)CCCNC(=N)N)C(=O)N[C@H](C)C(=O)N[C@H](Cc1ccccc1)C(=O)N[C@H](C)C(=O)N[C@H](Cc1ccccc1)C(=O)N[C@H](Cc1c[nH]c2ccccc12)C(=O)N[C@H](C)C(=O)N[C@H](CCCNC(=N)N)C(=O)N[C@H](CCCNC(=N)N)C(=O)N[C@H](CCCNC(=N)N)C(=O)N[C@H](CCCNC(=N)N)C(N)=O [D-CONGA-FLIP, rrlafafwarrrr (All D)] (H-[dR][dR][dL][dA][dF][dA][dF][dW][dA][dR][dR][dR][dR]-NH2) | 0.05 | 1.7 (≈ 2.99 µg/mL) | 1.7 (≈ 2.99 µg/mL) | 3.7 | 3.7 | 1 (≈ 1.76 µg/mL) | 1 (≈ 1.76 µg/mL) | 1.5 | 1.5 |
| CC(C)C[C@@H](NC(=O)CNC(=O)[C@@H](CCCNC(=N)N)NC(=O)[C@@H](CCCNC(=N)N)NC(=O)[C@@H](C)NC(=O)[C@@H](Cc1c[nH]c2ccccc12)NC(=O)[C@@H](CCCNC(=N)N)NC(=O)[C@H](N)CCCNC(=N)N)C(=O)N[C@H](C)C(=O)N[C@H](Cc1ccccc1)C(=O)N[C@H](C)C(=O)N[C@H](Cc1ccccc1)C(=O)N[C@H](CCCNC(=N)N)C(=O)N[C@H](CCCNC(=N)N)C(N)=O [D-CONGA-G7, rrwarrglafafrr (All D)] (H-[dR][dR][dW][dA][dR][dR]G[dL][dA][dF][dA][dF][dR][dR]-NH2) | 0.07 | 6.4 (≈ 11.6 µg/mL) | 6.4 (≈ 11.6 µg/mL) | 6.9 | 6.9 | 1.3 (≈ 2.36 µg/mL) | 1.3 (≈ 2.36 µg/mL) | 1.4 | 1.4 |
| CC(C)C[C@@H](NC(=O)[C@@H](CCCCNC(=N)N)NC(=O)[C@@H](CCCCNC(=N)N)NC(=O)[C@@H](C)NC(=O)[C@@H](Cc1c[nH]c2ccccc12)NC(=O)[C@@H](CCCNC(=N)N)NC(=O)[C@H](N)CCCNC(=N)N)C(=O)N[C@H](C)C(=O)N[C@H](Cc1ccccc1)C(=O)N[C@H](C)C(=O)N[C@H](Cc1ccccc1)C(=O)N[C@H](CCCNC(=N)N)C(=O)N[C@H](CCCNC(=N)N)C(N)=O [D-CONGA-HomoR, rrwa (homo r, homo r)lafafrr] (H-[dR][dR][dW][dA][d(hArg)][d(hArg)][dL][dA][dF][dA][dF][dR][dR]-NH2) | 0.06 | 1.7 (≈ 3.04 µg/mL) | 1.7 (≈ 3.04 µg/mL) | 2.5 | 2.5 | 1.3 (≈ 2.33 µg/mL) | 1.3 (≈ 2.33 µg/mL) | 2.2 | 2.2 |
| CC(C)C[C@@H](NC(=O)[C@@H](CCCNC(=N)N)NC(=O)[C@H](CCCNC(=N)N)NC(=O)[C@@H](C)NC(=O)[C@@H](Cc1c[nH]c2ccccc12)NC(=O)[C@@H](CCCNC(=N)N)NC(=O)[C@H](N)CCCNC(=N)N)C(=O)N[C@H](C)C(=O)N[C@H](Cc1ccccc1)C(=O)N[C@@H](C)C(=O)N[C@H](Cc1ccccc1)C(=O)N[C@H](CCCNC(=N)N)C(=O)N[C@H](CCCNC(=N)N)C(N)=O [D-CONGA-L(R5, A10), rrwaRrlafAfrr] (H-[dR][dR][dW][dA]R[dR][dL][dA][dF]A[dF][dR][dR]-NH2) | 0.04 | >30 | 30 (≈ 52.8 µg/mL) | >30 | 30 | 1.4 (≈ 2.47 µg/mL) | 1.4 (≈ 2.47 µg/mL) | 1.4 | 1.4 |
| CC(C)C[C@@H](NC(=O)[C@@H](CCCNC(=N)N)NC(=O)[C@@H](CCCNC(=N)N)NC(=O)[C@@H](Cc1c[nH]c2ccccc12)NC(=O)[C@@H](CCCNC(=N)N)NC(=O)[C@H](N)CCCNC(=N)N)C(=O)N[C@H](C)C(=O)N[C@H](Cc1ccccc1)C(=O)N[C@H](C)C(=O)N[C@H](Cc1ccccc1)C(=O)N[C@H](CCCNC(=N)N)C(=O)N[C@H](CCCNC(=N)N)C(N)=O [D-CONGA-ΔA4, rrwrrlafafrr (All D)] (H-[dR][dR][dW][dR][dR][dL][dA][dF][dA][dF][dR][dR]-NH2) | 0.02 | 3.2 (≈ 5.41 µg/mL) | 3.2 (≈ 5.41 µg/mL) | 2.3 | 2.3 | 1.6 (≈ 2.7 µg/mL) | 1.6 (≈ 2.7 µg/mL) | 2.8 | 2.8 |
| CC(C)C[C@@H](NC(=O)[C@@H](CCCNC(=N)N)NC(=O)[C@@H](CCCNC(=N)N)NC(=O)[C@@H](C)NC(=O)[C@@H](Cc1c[nH]c2ccccc12)NC(=O)[C@@H](CCCNC(=N)N)NC(=O)[C@H](N)CCCNC(=N)N)C(=O)N[C@H](C)C(=O)N[C@H](Cc1ccccc1)C(=O)N[C@H](Cc1ccccc1)C(=O)N[C@H](CCCNC(=N)N)C(=O)N[C@H](CCCNC(=N)N)C(N)=O [D-CONGA-ΔA10, rrwarrlaffrr (All D)] (H-[dR][dR][dW][dA][dR][dR][dL][dA][dF][dF][dR][dR]-NH2) | 0.02 | 23.5 (≈ 39.7 µg/mL) | 24 (≈ 40.6 µg/mL) | 19 | 19 | 0.7 (≈ 1.18 µg/mL) | 0.7 (≈ 1.18 µg/mL) | 1.3 | 1.3 |
| CC(C)C[C@@H](NC(=O)[C@@H](CCCNC(=N)N)NC(=O)[C@@H](CCCNC(=N)N)NC(=O)[C@@H](C)NC(=O)[C@@H](Cc1c[nH]c2ccccc12)NC(=O)[C@@H](CCCNC(=N)N)NC(=O)[C@H](N)CCCNC(=N)N)C(=O)N[C@H](C)C(=O)N[C@H](Cc1ccccc1)C(=O)N[C@H](C)C(=O)N[C@H](Cc1ccccc1)C(=O)N[C@H](CCCNC(=N)N)C(N)=O [D-CONGA-ΔR13, rrwarrlafafr (All D)] (H-[dR][dR][dW][dA][dR][dR][dL][dA][dF][dA][dF][dR]-NH2) | 0.03 | 27.1 (≈ 43.5 µg/mL) | 27 (≈ 43.3 µg/mL) | >30 | 30 | 0.9 (≈ 1.44 µg/mL) | 0.9 (≈ 1.44 µg/mL) | 0.6 | 0.6 |
